In series [1] the target is Serine/threonine-protein kinase 24 (Homo sapiens) (UniProt Q9Y6E0). Briefly: Binding affinity to recombinant MST3 (unknown origin) assessed as stabilization by measuring change in melting temperature at 10 uM by SYPRO orange dye based differential scanning fluorimetry assay. In general terms: Differential scanning fluorimetry follows unfolding on heating by fluorescence.

Series [2] deals with Serine/threonine-protein kinase PAK 1 (Homo sapiens) (UniProt Q13153). The experiment in a line: Binding affinity to recombinant PAK1 (unknown origin) assessed as stabilization by measuring change in melting temperature at 10 uM by SYPRO orange dye based differential scanning fluorimetry assay.
Series [3] concerns the target Tyrosine-protein kinase ABL1 (Homo sapiens, UniProt P00519). The experiment in a line: Binding affinity to recombinant ABL1 (unknown origin) assessed as stabilization by measuring change in melting temperature at 10 uM by SYPRO orange dye based differential scanning fluorimetry assay.
In series [4] the target is Ephrin type-B receptor 1 (Homo sapiens) (UniProt P54762). The experiment in a line: Binding affinity to recombinant EPHB1 (unknown origin) assessed as stabilization by measuring change in melting temperature at 10 uM by SYPRO orange dye based differential scanning fluorimetry assay.
Sequence of Ephrin type-B receptor 1 (Homo sapiens) (P54762 whole entry, the tested form may be a part): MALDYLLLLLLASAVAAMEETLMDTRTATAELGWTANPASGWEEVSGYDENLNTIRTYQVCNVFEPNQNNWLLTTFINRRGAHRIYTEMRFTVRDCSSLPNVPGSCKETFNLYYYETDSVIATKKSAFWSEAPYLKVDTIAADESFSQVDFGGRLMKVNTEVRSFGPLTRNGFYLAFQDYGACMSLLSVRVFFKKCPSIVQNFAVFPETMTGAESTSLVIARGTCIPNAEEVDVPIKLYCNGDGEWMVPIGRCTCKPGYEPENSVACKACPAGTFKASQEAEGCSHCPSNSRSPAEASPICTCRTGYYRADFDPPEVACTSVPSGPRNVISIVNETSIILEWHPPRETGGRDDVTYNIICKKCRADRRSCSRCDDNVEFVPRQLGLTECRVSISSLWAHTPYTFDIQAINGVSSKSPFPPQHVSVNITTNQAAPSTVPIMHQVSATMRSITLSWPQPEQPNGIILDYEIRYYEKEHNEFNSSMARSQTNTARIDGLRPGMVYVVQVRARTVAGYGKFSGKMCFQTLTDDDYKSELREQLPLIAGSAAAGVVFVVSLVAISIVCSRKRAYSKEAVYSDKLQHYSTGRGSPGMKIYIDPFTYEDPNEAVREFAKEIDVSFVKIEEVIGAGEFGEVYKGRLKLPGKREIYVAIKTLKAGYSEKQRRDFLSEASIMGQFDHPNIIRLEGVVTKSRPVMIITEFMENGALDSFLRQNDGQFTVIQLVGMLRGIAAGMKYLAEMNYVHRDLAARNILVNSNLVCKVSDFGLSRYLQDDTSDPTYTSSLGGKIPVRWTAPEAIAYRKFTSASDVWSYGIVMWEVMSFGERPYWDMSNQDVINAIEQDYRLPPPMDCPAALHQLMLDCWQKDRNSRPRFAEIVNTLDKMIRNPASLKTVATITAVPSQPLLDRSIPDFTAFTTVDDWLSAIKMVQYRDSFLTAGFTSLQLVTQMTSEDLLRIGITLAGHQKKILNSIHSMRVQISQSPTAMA
For the next series, the target named is Ephrin type-A receptor 2 (Homo sapiens, UniProt P29317). The experiment in a line: Inhibition of full length NanoLuc fused EPHA2 (unknown origin) transfected in HEK293T cells using NanoBRET NanoGlo substrate incubated for 2 hrs in presence of tracer by NanoBRET assay. It is filed as cell-based. A general note: In BRET a luciferase serves as donor, and the signal depends on an acceptor being close.

Series [5] has as its target Mitogen-activated protein kinase 8 (Homo sapiens, UniProt P45983). The experiment in a line: Inhibition of full length NanoLuc fused JNK1 (unknown origin) transfected in HEK293T cells using NanoBRET NanoGlo substrate incubated for 2 hrs in presence of tracer by NanoBRET assay. It is filed as cell-based.
The target of another series is Ephrin type-A receptor 4 (Homo sapiens, UniProt P54764). Briefly: Inhibition of full length NanoLuc fused EPHA4 (unknown origin) transfected in HEK293T cells using NanoBRET NanoGlo substrate incubated for 2 hrs in presence of tracer by NanoBRET assay. It is filed as cell-based.
Sequence of Ephrin type-A receptor 4 (P54764 whole entry, the tested form may be a part): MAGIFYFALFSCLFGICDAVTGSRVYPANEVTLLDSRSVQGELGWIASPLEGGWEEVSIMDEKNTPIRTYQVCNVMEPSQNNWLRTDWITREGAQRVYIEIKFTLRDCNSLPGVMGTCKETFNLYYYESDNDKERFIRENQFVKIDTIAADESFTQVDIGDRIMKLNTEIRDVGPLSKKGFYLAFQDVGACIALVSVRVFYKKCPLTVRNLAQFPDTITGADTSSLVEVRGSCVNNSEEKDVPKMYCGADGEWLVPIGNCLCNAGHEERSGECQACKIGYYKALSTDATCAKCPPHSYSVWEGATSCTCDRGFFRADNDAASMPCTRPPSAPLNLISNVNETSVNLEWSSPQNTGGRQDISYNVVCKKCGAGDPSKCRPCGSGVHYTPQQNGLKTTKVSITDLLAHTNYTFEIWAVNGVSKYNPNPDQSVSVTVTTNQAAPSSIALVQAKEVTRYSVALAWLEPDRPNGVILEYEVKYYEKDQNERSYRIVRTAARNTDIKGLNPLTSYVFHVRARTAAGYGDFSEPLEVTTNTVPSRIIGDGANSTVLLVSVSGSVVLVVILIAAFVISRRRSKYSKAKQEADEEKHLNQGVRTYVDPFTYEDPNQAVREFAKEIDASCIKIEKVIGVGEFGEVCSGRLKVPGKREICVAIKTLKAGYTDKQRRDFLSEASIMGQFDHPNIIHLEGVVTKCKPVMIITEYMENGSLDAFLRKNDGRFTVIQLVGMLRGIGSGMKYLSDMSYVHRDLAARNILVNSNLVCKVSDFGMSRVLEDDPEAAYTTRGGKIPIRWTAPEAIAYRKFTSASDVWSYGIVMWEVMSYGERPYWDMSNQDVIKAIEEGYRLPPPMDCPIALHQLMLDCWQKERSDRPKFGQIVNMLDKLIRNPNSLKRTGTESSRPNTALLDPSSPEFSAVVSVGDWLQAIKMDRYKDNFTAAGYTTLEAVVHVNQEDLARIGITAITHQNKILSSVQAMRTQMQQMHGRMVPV
Another series addresses Ephrin type-A receptor 3 (Homo sapiens, UniProt P29320). The experiment in a line: Inhibition of full length NanoLuc fused EPHA3 (unknown origin) transfected in HEK293T cells using NanoBRET NanoGlo substrate incubated for 2 hrs in presence of tracer by NanoBRET assay. It is filed as cell-based.
The next series has as its target Ephrin type-B receptor 2 (Homo sapiens, UniProt P29323). Briefly: Inhibition of full length NanoLuc fused EPHB2 (unknown origin) transfected in HEK293T cells using NanoBRET NanoGlo substrate incubated for 2 hrs in presence of tracer by NanoBRET assay. The format is cell-based.
For series [6], the target named is Serine/threonine-protein kinase SIK2 (Homo sapiens) (UniProt Q9H0K1). Briefly: Inhibition of SIK2 in human SK-OV-3 cells assessed as decrease in centrosome dissociation in G2 phase at 5 uM incubated for 48 hrs by immunofluorescence assay. It is filed as cell-based.
Sequence of Serine/threonine-protein kinase SIK2 (Homo sapiens) (Q9H0K1 whole entry, looked up): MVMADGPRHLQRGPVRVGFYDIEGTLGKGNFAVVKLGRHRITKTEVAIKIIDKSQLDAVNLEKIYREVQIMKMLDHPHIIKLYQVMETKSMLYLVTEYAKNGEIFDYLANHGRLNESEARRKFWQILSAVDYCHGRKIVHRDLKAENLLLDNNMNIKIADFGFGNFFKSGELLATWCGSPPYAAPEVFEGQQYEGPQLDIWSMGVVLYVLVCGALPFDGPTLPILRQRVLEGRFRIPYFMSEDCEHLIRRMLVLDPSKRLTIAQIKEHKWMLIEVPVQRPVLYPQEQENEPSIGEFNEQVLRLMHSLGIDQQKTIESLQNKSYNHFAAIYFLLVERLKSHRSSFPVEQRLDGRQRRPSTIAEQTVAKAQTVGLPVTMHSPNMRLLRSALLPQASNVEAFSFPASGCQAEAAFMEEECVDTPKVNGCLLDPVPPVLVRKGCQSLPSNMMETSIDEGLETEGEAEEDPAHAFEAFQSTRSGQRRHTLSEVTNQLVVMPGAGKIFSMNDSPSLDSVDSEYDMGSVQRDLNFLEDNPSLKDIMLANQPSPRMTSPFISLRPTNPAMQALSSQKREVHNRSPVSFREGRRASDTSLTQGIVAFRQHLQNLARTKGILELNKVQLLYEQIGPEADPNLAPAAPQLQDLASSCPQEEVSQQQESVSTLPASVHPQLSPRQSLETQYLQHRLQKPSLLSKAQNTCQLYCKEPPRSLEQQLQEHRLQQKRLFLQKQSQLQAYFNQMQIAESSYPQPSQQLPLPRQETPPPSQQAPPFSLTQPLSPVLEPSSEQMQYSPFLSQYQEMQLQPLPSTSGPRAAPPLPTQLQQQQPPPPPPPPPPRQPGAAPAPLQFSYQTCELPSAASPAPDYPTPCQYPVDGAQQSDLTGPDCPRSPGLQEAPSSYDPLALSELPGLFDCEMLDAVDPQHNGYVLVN
A further series concerns SK-OV-3. The experiment in a line: Induction of cell cycle arrest in human SK-OV-3 cells assessed as accumulation of cells at G1 phase at 5 uM incubated for 24 hrs by flow cytometry (reference value: 34%). The format is functional.
The target of series [7] is Serine/threonine-protein kinase SIK2 (Homo sapiens) (UniProt Q9H0K1). Briefly: Inhibition of SIK2 in human SK-OV-3 cells assessed as upregulation of PLK expression level at 5 uM incubated for 48 hrs by Western blotting analysis. The format is cell-based. For orientation: In western blotting, separated proteins are transferred to a membrane and probed.
Another series concerns HCT-116. The experiment in a line: Cytotoxicity against human HCT-116 cells assessed as appearance of pyknosis nuclei at 10 uM incubated for 80 hrs by Hoechst-33342 staining high-content imaging analysis. It is filed as toxicity, cell-based. Conditions: hct-116, 80 h.
A short description of series [8]: Binding affinity to recombinant RSK1b (unknown origin) assessed as stabilization by measuring change in melting temperature at 10 uM by SYPRO orange dye based differential scanning fluorimetry assay. The settings on record: Homo sapiens.

The values that follow come from ChEMBL document CHEMBL5325437, “Shifting the selectivity of pyrido[2,3-d]pyrimidin-7(8H)-one inhibitors towards the salt-inducible kinase (SIK) subfamily” (Eur J Med Chem, 2023).

Each structure is given as a SMILES string. Active and inactive are the calls of the source. The calls are words filed in the database; no cut-off is given here.

Sequence of Ephrin type-A receptor 3 (P29320 whole entry, the tested form may be a part): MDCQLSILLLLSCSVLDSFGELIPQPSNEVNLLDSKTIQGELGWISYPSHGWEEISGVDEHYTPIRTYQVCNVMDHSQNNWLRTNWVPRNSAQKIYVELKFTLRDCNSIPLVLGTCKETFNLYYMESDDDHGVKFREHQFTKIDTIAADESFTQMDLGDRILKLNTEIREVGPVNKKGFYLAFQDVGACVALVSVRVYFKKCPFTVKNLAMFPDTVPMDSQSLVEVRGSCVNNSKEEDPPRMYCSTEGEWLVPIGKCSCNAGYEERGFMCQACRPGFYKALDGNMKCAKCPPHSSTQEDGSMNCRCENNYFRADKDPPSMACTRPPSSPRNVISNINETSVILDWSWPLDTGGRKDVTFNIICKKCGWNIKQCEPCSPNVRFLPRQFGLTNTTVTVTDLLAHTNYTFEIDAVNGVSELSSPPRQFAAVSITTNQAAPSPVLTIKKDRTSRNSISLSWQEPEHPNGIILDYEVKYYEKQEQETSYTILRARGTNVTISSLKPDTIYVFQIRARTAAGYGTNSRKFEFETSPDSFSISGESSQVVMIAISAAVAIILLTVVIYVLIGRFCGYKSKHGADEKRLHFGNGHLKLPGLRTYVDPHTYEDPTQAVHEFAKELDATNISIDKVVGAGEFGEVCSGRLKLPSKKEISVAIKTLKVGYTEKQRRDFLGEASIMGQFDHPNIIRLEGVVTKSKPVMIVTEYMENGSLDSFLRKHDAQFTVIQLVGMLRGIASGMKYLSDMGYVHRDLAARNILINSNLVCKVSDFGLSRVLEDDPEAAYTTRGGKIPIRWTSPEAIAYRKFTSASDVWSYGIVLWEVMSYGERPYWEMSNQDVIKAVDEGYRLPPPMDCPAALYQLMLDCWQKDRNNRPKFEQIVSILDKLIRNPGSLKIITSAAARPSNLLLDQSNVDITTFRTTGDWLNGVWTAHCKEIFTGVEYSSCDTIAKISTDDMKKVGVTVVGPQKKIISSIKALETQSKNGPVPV
Sequence of Ephrin type-B receptor 2 (P29323 whole entry, the tested form may be a part): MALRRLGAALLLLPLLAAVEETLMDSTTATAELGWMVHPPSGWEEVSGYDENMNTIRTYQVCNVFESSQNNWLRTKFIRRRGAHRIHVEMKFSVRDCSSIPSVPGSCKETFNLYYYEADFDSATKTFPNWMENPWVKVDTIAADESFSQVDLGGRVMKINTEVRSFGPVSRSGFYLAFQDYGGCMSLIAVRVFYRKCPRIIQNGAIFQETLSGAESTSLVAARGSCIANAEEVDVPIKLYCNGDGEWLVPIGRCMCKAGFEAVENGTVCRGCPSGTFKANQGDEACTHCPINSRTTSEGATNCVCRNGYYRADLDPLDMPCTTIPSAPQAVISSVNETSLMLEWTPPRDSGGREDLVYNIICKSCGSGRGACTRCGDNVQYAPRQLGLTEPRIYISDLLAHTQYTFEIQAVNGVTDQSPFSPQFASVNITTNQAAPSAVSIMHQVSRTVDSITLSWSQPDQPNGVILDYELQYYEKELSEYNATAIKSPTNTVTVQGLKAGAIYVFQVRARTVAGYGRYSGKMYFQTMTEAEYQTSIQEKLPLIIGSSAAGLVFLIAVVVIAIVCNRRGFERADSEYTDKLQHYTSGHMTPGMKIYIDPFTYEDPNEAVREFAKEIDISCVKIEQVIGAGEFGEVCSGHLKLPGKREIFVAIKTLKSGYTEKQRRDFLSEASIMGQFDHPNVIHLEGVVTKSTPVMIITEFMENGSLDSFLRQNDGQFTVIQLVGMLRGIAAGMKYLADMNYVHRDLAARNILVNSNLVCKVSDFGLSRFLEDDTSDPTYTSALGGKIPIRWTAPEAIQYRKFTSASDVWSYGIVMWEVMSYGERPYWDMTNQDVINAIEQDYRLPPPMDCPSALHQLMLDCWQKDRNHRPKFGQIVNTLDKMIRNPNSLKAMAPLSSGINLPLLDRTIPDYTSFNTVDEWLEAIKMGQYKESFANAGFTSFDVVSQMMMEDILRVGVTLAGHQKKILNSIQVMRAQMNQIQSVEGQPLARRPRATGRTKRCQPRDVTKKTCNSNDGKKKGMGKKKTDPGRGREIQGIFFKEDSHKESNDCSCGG

Broadly, the ΔTm is the change in melting temperature against a reference sample. The IC50 is the concentration at which inhibition is half-maximal. In the case of `CNc1ncc2cc(-c3cc(F)ccc3F)c(=O)n(CCCCN)c2n1`, the ΔTm was found to be 1.5 °C in series [1]; 0 °C in series [2]; 7.4 °C in series [3]; 7 °C in series [4]; 15.1 °C in [8]. Besides, the IC50 at Ephrin type-A receptor 2 was 2100 nM; in [5], 23200 nM; at Ephrin type-A receptor 4 it was 1600 nM; on Ephrin type-A receptor 3, 2100 nM; on Ephrin type-B receptor 2 it was 22600 nM. Further, the inhibition result in [6] and in [7] was “Active” in each case. Also, the Activity was 50% with SK-OV-3 and 30% in the series on HCT-116.
